Measurements published in ChEMBL document CHEMBL6074678, “Selectively Antagonizing the NOD1-Mediated Inflammatory Signaling Pathway Mitigates the Gastric Inflammation Induced by Helicobacter pylori Infection” (J Med Chem, 2024).

Experiments:
[1] = target: T1, Nucleotide-binding oligomerization domain-containing protein 1 (Mus musculus, UniProt Q8BHB0); test: Antagonist activity at mouse NOD1 expressed in HEK-Blue cells assessed as decrease in SEAP secretion incubated for 3 hrs followed by C12-iE-DAP stimulation for 20 hrs by spectrophotometry; assay type: cell-based, HEK-Blue mNOD1
T1 sequence (Q8BHB0 whole entry): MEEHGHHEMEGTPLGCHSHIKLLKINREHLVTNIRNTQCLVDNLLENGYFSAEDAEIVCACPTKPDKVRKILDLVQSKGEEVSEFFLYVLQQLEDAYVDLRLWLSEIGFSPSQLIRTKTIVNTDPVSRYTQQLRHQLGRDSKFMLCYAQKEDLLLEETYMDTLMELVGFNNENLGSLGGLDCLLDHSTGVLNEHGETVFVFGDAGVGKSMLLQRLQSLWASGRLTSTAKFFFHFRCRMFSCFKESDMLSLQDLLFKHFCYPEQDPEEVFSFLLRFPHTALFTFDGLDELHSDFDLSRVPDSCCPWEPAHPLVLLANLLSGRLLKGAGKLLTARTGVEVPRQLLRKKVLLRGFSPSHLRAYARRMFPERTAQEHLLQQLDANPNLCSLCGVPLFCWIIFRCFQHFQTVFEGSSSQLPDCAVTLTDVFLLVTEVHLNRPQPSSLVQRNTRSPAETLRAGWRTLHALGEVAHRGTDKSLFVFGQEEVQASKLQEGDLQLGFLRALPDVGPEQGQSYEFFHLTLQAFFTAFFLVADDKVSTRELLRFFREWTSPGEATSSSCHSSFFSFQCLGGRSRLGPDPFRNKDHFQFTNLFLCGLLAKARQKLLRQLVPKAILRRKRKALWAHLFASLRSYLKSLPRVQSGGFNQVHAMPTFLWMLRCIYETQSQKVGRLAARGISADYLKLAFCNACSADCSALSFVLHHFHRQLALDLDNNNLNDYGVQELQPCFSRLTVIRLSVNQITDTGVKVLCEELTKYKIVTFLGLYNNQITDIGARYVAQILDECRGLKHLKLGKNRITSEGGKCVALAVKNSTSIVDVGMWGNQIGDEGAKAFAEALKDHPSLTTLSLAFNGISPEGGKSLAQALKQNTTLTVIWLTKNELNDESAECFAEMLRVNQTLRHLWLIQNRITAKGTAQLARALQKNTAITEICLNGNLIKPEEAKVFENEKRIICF

[2] = target: T2, Nucleotide-binding oligomerization domain-containing protein 1 (Mus musculus) (UniProt Q8BHB0); test: Antagonist activity at mouse NOD1 expressed in HEK-Blue cells assessed as decrease in SEAP secretion at 1 uM incubated for 3 hrs followed by C12-iE-DAP stimulation for 20 hrs by spectrophotometry relative to control; assay type: cell-based
T2 sequence (whole entry): T1 sequence (Q8BHB0 whole entry)

[3] = target: T2, Nucleotide-binding oligomerization domain-containing protein 1 (Mus musculus); test: Antagonist activity at mouse NOD1 expressed in HEK-Blue cells assessed as decrease in SEAP secretion at 5 uM incubated for 3 hrs followed by C12-iE-DAP stimulation for 20 hrs by spectrophotometry relative to control; assay type: cell-based
[4] = target: T3, Nucleotide-binding oligomerization domain-containing protein 1 (Homo sapiens, UniProt Q9Y239); test: Antagonist activity at human NOD1 expressed in HEK-Blue cells assessed as decrease in SEAP secretion incubated for 3 hrs followed by C12-iE-DAP stimulation for 20 hrs by spectrophotometry; assay type: cell-based, HEK-Blue hNOD1
T3 sequence (Q9Y239 whole entry): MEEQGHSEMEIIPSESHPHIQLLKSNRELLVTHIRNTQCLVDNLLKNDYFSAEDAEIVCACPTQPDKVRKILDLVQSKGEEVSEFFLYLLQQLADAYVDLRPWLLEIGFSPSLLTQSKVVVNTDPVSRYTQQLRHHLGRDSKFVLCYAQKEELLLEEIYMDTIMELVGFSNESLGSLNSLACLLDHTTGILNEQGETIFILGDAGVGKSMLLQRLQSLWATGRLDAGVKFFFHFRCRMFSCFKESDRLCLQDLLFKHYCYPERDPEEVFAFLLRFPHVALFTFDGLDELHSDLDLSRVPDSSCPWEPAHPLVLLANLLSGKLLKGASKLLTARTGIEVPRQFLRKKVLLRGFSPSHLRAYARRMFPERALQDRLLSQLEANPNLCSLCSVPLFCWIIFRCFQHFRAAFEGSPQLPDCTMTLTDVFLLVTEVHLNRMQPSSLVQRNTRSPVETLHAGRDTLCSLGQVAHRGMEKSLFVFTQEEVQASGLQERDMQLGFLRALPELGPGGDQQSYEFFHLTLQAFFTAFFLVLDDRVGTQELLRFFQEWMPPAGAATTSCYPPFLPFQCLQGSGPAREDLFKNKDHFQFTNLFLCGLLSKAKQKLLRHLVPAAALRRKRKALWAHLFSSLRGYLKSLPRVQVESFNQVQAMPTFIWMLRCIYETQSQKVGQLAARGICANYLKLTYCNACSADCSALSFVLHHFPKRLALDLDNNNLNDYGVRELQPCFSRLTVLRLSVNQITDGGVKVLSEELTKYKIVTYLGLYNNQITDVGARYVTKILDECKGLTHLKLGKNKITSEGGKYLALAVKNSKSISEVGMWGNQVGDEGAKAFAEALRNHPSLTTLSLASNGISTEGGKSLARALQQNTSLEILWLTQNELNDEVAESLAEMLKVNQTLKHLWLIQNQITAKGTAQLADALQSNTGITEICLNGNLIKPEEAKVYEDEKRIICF

[5] = HEK-Blue mNOD1, filed as antagonist, time 23.0 hrs

Row | SMILES | IC50 [1] [nM] | inhibition [2, 5] [%] | other results
1 | O=c1c2cc(C(F)(F)F)ccc2nc(Cl)n1-c1ccc(Cl)c(NS(=O)(=O)c2c(F)cccc2F)c1 | 404 | 65.3 | –
2 | CC(=O)Nc1ccc(Cl)c(NS(=O)(=O)c2ccccc2F)c1 | – | – | inhibition ([3]; HEK-Blue mNOD1, time 23.0 hrs): < 10%
3 | Cc1nc2ccc(Cl)cc2c(=O)n1-c1ccc(Cl)c(S(=O)(=O)Nc2ccccc2F)c1 | – | – | inhibition ([3]; HEK-Blue mNOD1, time 23.0 hrs): 21.1%
4 | O=c1c2ccncc2nc(C(F)F)n1-c1ccc(Cl)c(NS(=O)(=O)c2ccccc2F)c1 | – | – | inhibition ([2]; HEK-Blue mNOD1, time 23.0 hrs): 19.1%
5 | O=c1c2cc(Cl)ncc2nc(Cl)n1-c1ccc(Cl)c(NS(=O)(=O)c2ccc3ncsc3c2)c1 | 132 | 85.7 | –
6 | N#Cc1ccccc1S(=O)(=O)Nc1cc(-n2c(Cl)nc3cnc(Cl)cc3c2=O)ccc1Cl | 121 | 86.3 | IC50 [4]: 1.2 nM
7 | CCOC(=O)c1nc2ccc(Cl)cc2c(=O)n1-c1ccc(Cl)c(NS(=O)(=O)c2ccccc2F)c1 | – | – | inhibition ([3]; HEK-Blue mNOD1, time 23.0 hrs): 11.4%
8 | Cc1nc2ccc(Cl)cc2c(=O)n1-c1ccc(Cl)c(C(=O)N2Cc3ccccc3S2(=O)=O)c1 | – | – | inhibition ([3]; HEK-Blue mNOD1, time 23.0 hrs): < 10%
9 | O=c1c2cc(OC(F)(F)F)ccc2nc(Cl)n1-c1ccc(Cl)c(NS(=O)(=O)c2c(F)cccc2F)c1 | 2650 | – | inhibition ([2]; HEK-Blue mNOD1, time 23.0 hrs): 36.5%
10 | O=c1c2cc(Cl)ncc2nc(Cl)n1-c1ccc(Cl)c(NS(=O)(=O)c2ccccc2Cl)c1 | 285 | – | –
11 | N#Cc1ccc2nc(Cl)n(-c3ccc(Cl)c(NS(=O)(=O)c4ccccc4F)c3)c(=O)c2c1 | 117 | 83.6 | IC50 [4]: 9.7 nM
12 | O=c1c2cc(Cl)ncc2nc(Cl)n1-c1ccc(Cl)c(NS(=O)(=O)N2CCCCC2)c1 | – | – | IC50 [4]: 126 nM; inhibition ([2]; HEK-Blue mNOD1, time 23.0 hrs): 28.7%
13 | O=c1c2cc(F)c(F)cc2nc(Cl)n1-c1ccc(Cl)c(NS(=O)(=O)c2ccccc2F)c1 | 1300 | 55.3 | –
14 | O=c1c2cc([N+](=O)[O-])ccc2nc(Cl)n1-c1ccc(Cl)c(NS(=O)(=O)c2ccccc2F)c1 | 860 | 52.1 | IC50 [4]: 9.1 nM
15 | O=c1c2cc(Br)ccc2nc(Cl)n1-c1ccc(Cl)c(NS(=O)(=O)c2ccccc2F)c1 | – | 40.5 | IC50 [4]: 18 nM
16 | Cn1cc(S(=O)(=O)Nc2cc(-n3c(Cl)nc4cnc(Cl)cc4c3=O)ccc2Cl)cn1 | 267 | 77.6 | IC50 [4]: 3.1 nM
17 | Cc1nc2ccc(Cl)cc2c(=O)n1NS(=O)(=O)c1ccc(Cl)cc1 | – | – | inhibition ([3]; HEK-Blue mNOD1, time 23.0 hrs): < 10%
18 | Nc1ccc(Cl)cc1C(=O)Nc1ccc(Cl)c(NS(=O)(=O)c2ccccc2F)c1 | – | – | inhibition ([3]; HEK-Blue mNOD1, time 23.0 hrs): 32.9%
19 | COc1cc2nc(Cl)n(-c3ccc(Cl)c(NS(=O)(=O)c4ccccc4F)c3)c(=O)c2cc1Cl | – | – | inhibition ([2]; HEK-Blue mNOD1, time 23.0 hrs): 39.3%
20 | NC(=O)c1nc2ccc(Cl)cc2c(=O)n1-c1ccc(Cl)c(NS(=O)(=O)c2ccccc2F)c1 | – | – | inhibition [3, 5]: 48.2%
21 | O=c1c2cc(C(F)(F)F)ccc2nc(Cl)n1-c1ccc(Cl)c(NS(=O)(=O)c2ccccc2F)c1 | 624 | – | –
22 | O=c1c2nc(Cl)cnc2nc(Cl)n1-c1ccc(Cl)c(NS(=O)(=O)c2ccccc2F)c1 | 1230 | – | –

Row | SMILES | IC50 [1] [nM] | inhibition [2, 5] [%] | other results
23 | O=c1c2ccncc2nc(Cl)n1-c1ccc(Cl)c(NS(=O)(=O)c2ccc(F)cc2F)c1 | 193 | 80.5 | –
24 | O=c1c2ccncc2nc(Cl)n1-c1ccc(Cl)c(NS(=O)(=O)c2ccc([N+](=O)[O-])cc2F)c1 | 133 | – | –
25 | CS(=O)(=O)c1ccc2nc(Cl)n(-c3ccc(Cl)c(NS(=O)(=O)c4ccccc4F)c3)c(=O)c2c1 | 110 | 88.9 | IC50 [4]: 4.4 nM
26 | COc1ccc2nc(Cl)n(-c3ccc(Cl)c(NS(=O)(=O)c4ccccc4F)c3)c(=O)c2c1 | – | – | inhibition ([2]; HEK-Blue mNOD1, time 23.0 hrs): < 10%
27 | O=c1c2cc(Cl)ncc2nc(Cl)n1-c1ccc(Cl)c(NS(=O)(=O)c2ccc3c(c2)CCO3)c1 | 673 | – | –
28 | O=c1c2cc(Cl)ncc2nc(Cl)n1-c1ccc(Cl)c(NS(=O)(=O)c2cccnc2)c1 | 381 | – | –
29 | O=c1c2cc(Cl)ncc2nc(Cl)n1-c1ccc(Cl)c(NS(=O)(=O)c2c(F)cccc2F)c1 | 67 | 87.5 | IC50 [4]: 1.3 nM
30 | Cc1nc2ccc(Cl)cc2c(=O)n1-c1ccc(Cl)c(N)c1 | – | – | inhibition ([3]; HEK-Blue mNOD1, time 23.0 hrs): < 10%
31 | Cc1nc2ccc(Cl)cc2c(=O)n1-c1ccc(Cl)c(N2Cc3ccccc3S2(=O)=O)c1 | – | – | inhibition ([3]; HEK-Blue mNOD1, time 23.0 hrs): 14.5%; IC50 [4]: 11200 nM
32 | C=CS(=O)(=O)Nc1cc(-n2c(Cl)nc3cnc(Cl)cc3c2=O)ccc1Cl | 1150 | 70.2 | –
33 | O=c1c2ccccc2nc(Cl)n1-c1ccc(Cl)c(NS(=O)(=O)c2ccccc2F)c1 | – | – | inhibition ([2]; HEK-Blue mNOD1, time 23.0 hrs): < 10%
34 | O=c1c2cc(Cl)ncc2nc(Cl)n1-c1ccc(Cl)c(NS(=O)(=O)c2ccc(Cl)s2)c1 | 300 | 76.5 | –
35 | O=c1c2ccncc2nc(C(F)(F)F)n1-c1ccc(Cl)c(NS(=O)(=O)c2ccccc2F)c1 | – | – | inhibition ([2]; HEK-Blue mNOD1, time 23.0 hrs): 7.7%
36 | Cc1noc(C)c1S(=O)(=O)Nc1cc(-n2c(Cl)nc3cnc(Cl)cc3c2=O)ccc1Cl | 559 | – | –
37 | O=c1c2ccncc2nc(Cl)n1-c1ccc(Cl)c(NS(=O)(=O)c2cc(F)ccc2F)c1 | 165 | 81.8 | IC50 [4]: 8.4 nM
38 | Cc1nc2ccc(Cl)cc2c(=O)n1CCCNS(=O)(=O)c1ccccc1F | – | – | inhibition ([3]; HEK-Blue mNOD1, time 23.0 hrs): < 10%
39 | CS(=O)(=O)c1ccc2nc(Cl)n(-c3ccc(Cl)c(NS(=O)(=O)c4ccc([N+](=O)[O-])cc4F)c3)c(=O)c2c1 | 199 | 82.3 | –
40 | Cc1nc2ccc(Cl)cc2c(=O)n1-c1ccc(Cl)c(NC(=O)c2ccccc2F)c1 | – | – | inhibition ([3]; HEK-Blue mNOD1, time 23.0 hrs): < 10%
41 | N[C@@H](CCC(=O)N[C@@H](CSc1nc2cnccc2c(=O)n1-c1ccc(Cl)c(NS(=O)(=O)c2ccccc2F)c1)C(=O)NCC(=O)O)C(=O)O | – | – | inhibition ([2]; HEK-Blue mNOD1, time 23.0 hrs): -1%
42 | O=c1c2cc(-c3cccc(Cl)c3)ccc2nc(Cl)n1-c1ccc(Cl)c(NS(=O)(=O)c2ccccc2F)c1 | – | – | inhibition ([2]; HEK-Blue mNOD1, time 23.0 hrs): 15.6%
43 | Cc1nc2ccc(Cl)cc2c(=O)n1-c1ccc(Cl)c(C(=O)O)c1 | – | – | inhibition ([3]; HEK-Blue mNOD1, time 23.0 hrs): < 10%
44 | O=c1c2ccncc2nc(Cl)n1-c1ccc(Cl)c(NS(=O)(=O)c2cc(F)c(F)cc2F)c1 | 159 | 81.8 | IC50 [4]: 7.5 nM
